Test system: 313798-341-R-J2-PDC spheroids, viability
Experiment: Anticancer human tumor 313798-341-R-J2-PDC patient-derived cervical squamous cell carcinoma cell line growth inhibition [PI3K]
Settings: spheroids with HUVEC and MSC; for IC50: curve of first compound; for viability, T/C: stronger effect = lower value
Text: Combinatorial screen of targeted agents with the PI3K inhibitors inavolisib, alpelisib, duvelisib, and copanlisib in multi-cell type tumor spheroids
A high-throughput screen of multi-cell type tumor spheroids was designed to identify active combinations of targeted small molecules and PI3K pathway inhibitors. Complex spheroids include a stromal component modeled by human endothelial cells (HUVEC) and fibroblasts modeled by human mesenchymal stem cells (MSCs). The concentration ranges selected for each drug and investigational agent were based upon clinically achievable concentrations if the clinical Cmax of the agent was known.
Compounds. The drugs and investigational agents: inavolisib (NSC800729), alpelisib (NSC765974), duvelisib (NSC772469), copanlisib (NSC816437), ipatasertib (NSC767898), afuresertib (NSC778305), talazoparib (NSC767125), sapanisertib (NSC764658), selumetinib (NSC741078), tovorafenib (DAY101, NSC766906), vemurafenib (NSC761431), ravoxertinib (NSC781343), sotorasib (NSC818433), MRTX1133 (NSC 836407), abemaciclib (NSC 768073), palbociclib (NSC758247), venetoclax (NSC 766270), SY5609 (NSC837396), enzalutamide (NSC755605), and darolutamide (NSC825331), were obtained from the National Cancer Institute (NCI) Developmental Therapeutics Program Chemical Repository. The FDA-approved anticancer drug set is available from the NCI Developmental Therapeutics Program. […] The stock solutions were prepared in dimethyl sulfoxide (DMSO, Sigma-Aldrich, St. Louis, MO, cat. D2650) at 800-fold the tested concentration and stored at -70 degrees C prior to their use. All drugs and investigational agents were tested over a range starting from a high concentration at or near the clinical Cmax and decreasing in half-log increments. If the clinical Cmax for an agent had not been determined, the highest concentration tested was 10 microM.
Cell Culture. All cells were maintained in an incubator at 37 degrees C and 5% CO2 with 95% humidity. The PDC lines were cultured according to standard operating procedures established by the NCI PDMR (https://pdmr.cancer.gov/sops/default.htm). All PDCs were thawed and cultured in Matrigel-coated flasks prepared with a working solution of 1X Ham's F-12 nutrient mix, without supplementation (Invitrogen, Waltham, MA, cat. 11765054), 100 U/mL penicillin-streptomycin (Invitrogen, cat. 15140122), and 2.5% Matrigel (Corning Inc., Corning, NY, cat. 354248) for the first three passages. The 354836-022-R-J1-PDC, 475296-252-R-J1-PDC, and 997726-040-R-J2-PDC lines were cultured in 6A media, which includes advanced DMEM/F-12 (Thermo Fisher Scientific, cat. 12634028), 10 mM HEPES (Thermo Fisher Scientific, cat. 15630080), 1X GlutaMAX supplement (Thermo Fisher Scientific, cat. 35050061), 0.1 mg/mL primocin (InvivoGen, San Diego, CA, cat. ant-pm-2), 10% defined fetal bovine serum, heat inactivated (HyClone Laboratories Inc., Logan, UT, cat. SH30070.03HI), 50% L-WRN conditioned media (ATCC, cat. CRL-3276), 1.25 mM N-Acetyl-L-cysteine (Sigma-Aldrich, cat. A9165), 10 mM nicotinamide (Sigma-Aldrich, cat. N0636), 1X B-27 supplement (Thermo Fisher Scientific, cat. 17504044), 1X N-2 supplement (Thermo Fisher Scientific, cat. 17502048), and 10 microM Y-27632 dihydrochloride (Tocris Bioscience, Bristol, United Kingdom, cat. 1254). The 624824-186-R-J2-PDC line was cultured in 6C/Colon 1B media, which includes all 6A media components plus 50 ng/mL human EGF recombinant protein (Thermo Fisher Scientific, cat. PHG0311). […]

[1] = second compound 0.00316 µM, first compound 0.0316 µM
[2] = second compound 0.00316 µM, first compound 0.1 µM
[3] = second compound 0.00316 µM, first compound 0.316 µM
[4] = second compound 0.00316 µM, first compound 1 µM
[5] = second compound 0.00316 µM, first compound 3.16 µM
[6] = second compound 0.00316 µM, first compound 10 µM
[7] = second compound 0.01 µM, first compound 0.0316 µM
[8] = second compound 0.01 µM, first compound 0.1 µM
[9] = second compound 0.01 µM, first compound 0.316 µM
[10] = second compound 0.01 µM, first compound 1 µM
[11] = second compound 0.01 µM, first compound 3.16 µM
[12] = second compound 0.01 µM, first compound 10 µM
[13] = second compound 0.0316 µM, first compound 0.0316 µM
[14] = second compound 0.0316 µM, first compound 0.1 µM
[15] = second compound 0.0316 µM, first compound 0.316 µM
[16] = second compound 0.0316 µM, first compound 1 µM
[17] = second compound 0.0316 µM, first compound 3.16 µM
[18] = second compound 0.0316 µM, first compound 10 µM
[19] = second compound 0.1 µM, first compound 0.0316 µM
[20] = second compound 0.1 µM, first compound 0.1 µM
[21] = second compound 0.1 µM, first compound 0.316 µM
[22] = second compound 0.1 µM, first compound 1 µM
[23] = second compound 0.1 µM, first compound 3.16 µM
[24] = second compound 0.1 µM, first compound 10 µM
[25] = second compound 0.316 µM, first compound 0.0316 µM
[26] = second compound 0.316 µM, first compound 0.1 µM
[27] = second compound 0.316 µM, first compound 0.316 µM
[28] = second compound 0.316 µM, first compound 1 µM
[29] = second compound 0.316 µM, first compound 3.16 µM
[30] = second compound 0.316 µM, first compound 10 µM
[31] = second compound 1 µM, first compound 0.0316 µM
[32] = second compound 1 µM, first compound 0.1 µM
[33] = second compound 1 µM, first compound 0.316 µM
[34] = second compound 1 µM, first compound 1 µM
[35] = second compound 1 µM, first compound 3.16 µM
[36] = second compound 1 µM, first compound 10 µM
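Also: spheroids exposed to compounds for seven days.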
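For viability, T/C in this document: 100% = DMSO vehicle control viability.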

Compound: C[C@@H](NC(=O)c1ncnc(N)c1Cl)c1ncc(C(=O)Nc2cc(C(F)(F)F)c(Cl)cn2)s1 + CC(Nc1ccc2c(c1)OCCn1cc(N3C(=O)OCC3C(F)F)nc1-2)C(N)=O
- IC50 (second compound 0.00316 µM): 5940 nM
- IC50 (second compound 0.01 µM): 5980 nM
- IC50 (second compound 0.0316 µM): 5900 nM
- IC50 (second compound 0.1 µM): 4720 nM
- IC50 (second compound 0.316 µM): 1910 nM
- IC50 (second compound 1 µM): < 31.6 nM
- viability, T/C [1]: 101%
- viability, T/C [2]: 106%
- viability, T/C [3]: 103%
- viability, T/C [4]: 95.4%
- viability, T/C [5]: 110%
- viability, T/C [6]: 6.06%
- viability, T/C [7]: 110%
- viability, T/C [8]: 105%
- viability, T/C [9]: 95.1%
- viability, T/C [10]: 105%
- viability, T/C [11]: 110%
- viability, T/C [12]: 5.51%
- viability, T/C [13]: 99.9%
- viability, T/C [14]: 103%
- viability, T/C [15]: 110%
- viability, T/C [16]: 114%
- viability, T/C [17]: 99.6%
- viability, T/C [18]: 8.08%
- viability, T/C [19]: 81.9%
- viability, T/C [20]: 78%
- viability, T/C [21]: 91.8%
- viability, T/C [22]: 92.7%
- viability, T/C [23]: 73.3%
- viability, T/C [24]: 6.24%
- viability, T/C [25]: 55.2%
- viability, T/C [26]: 54.6%
- viability, T/C [27]: 61.6%
- viability, T/C [28]: 66.5%
- viability, T/C [29]: 42.6%
- viability, T/C [30]: 9.28%
- viability, T/C [31]: 51.8%
- viability, T/C [32]: 41.5%
- viability, T/C [33]: 53.4%
- viability, T/C [34]: 45.4%
- viability, T/C [35]: 29.3%
- viability, T/C [36]: 14.3%

Compound: CC1(C)CCC(Nc2ncc(C(F)(F)F)c(-c3c[nH]c4c(P(C)(C)=O)c(C#N)ccc34)n2)CN1 (centres undefined) + CC(Nc1ccc2c(c1)OCCn1cc(N3C(=O)OCC3C(F)F)nc1-2)C(N)=O
- IC50 (second compound 0.00316 µM): 31.6 nM
- IC50 (second compound 0.01 µM): < 31.6 nM
- IC50 (second compound 0.0316 µM): < 31.6 nM
- IC50 (second compound 0.1 µM): < 31.6 nM
- IC50 (second compound 0.316 µM): < 31.6 nM
- IC50 (second compound 1 µM): < 31.6 nM
- viability, T/C [1]: 53.1%
- viability, T/C [2]: 45.8%
- viability, T/C [3]: 42.4%
- viability, T/C [4]: 48.7%
- viability, T/C [5]: 51.6%
- viability, T/C [6]: 29.3%
- viability, T/C [7]: 49.6%
- viability, T/C [8]: 47.2%
- viability, T/C [9]: 46.1%
- viability, T/C [10]: 44.1%
- viability, T/C [11]: 49.4%
- viability, T/C [12]: 25.4%
- viability, T/C [13]: 45%
- viability, T/C [14]: 40.9%
- viability, T/C [15]: 37.9%
- viability, T/C [16]: 38.6%
- viability, T/C [17]: 41%
- viability, T/C [18]: 29.1%
- viability, T/C [19]: 36.7%
- viability, T/C [20]: 31.6%
- viability, T/C [21]: 31.1%
- viability, T/C [22]: 31.7%
- viability, T/C [23]: 30.9%
- viability, T/C [24]: 14.8%
- viability, T/C [25]: 26.4%
- viability, T/C [26]: 25.3%
- viability, T/C [27]: 24.9%
- viability, T/C [28]: 23.1%
- viability, T/C [29]: 29.3%
- viability, T/C [30]: 8.87%
- viability, T/C [31]: 21.1%
- viability, T/C [32]: 20.6%
- viability, T/C [33]: 21.5%
- viability, T/C [34]: 21.9%
- viability, T/C [35]: 23.9%
- viability, T/C [36]: 3.07%

Source: PubChem BioAssay AID1963982 (Molecular Pharmacology Branch, DTP, NCI, 2024)
